Laboratory results from PMC6594577, “Identifying small molecule probes of ENTPD5 through high throughput screening” (PLoS ONE, 2019).

Columns and labels:
[1] = target: T1, B.ENTPD5 (human ENTPD5 44–428) (Homo sapiens, UniProt O75356); assay: coupled enzyme (ENTPD5/UMPK/luciferase) HTS assay; assay type: biochemical; settings: for IC50: compounds at 5, 10, 20 and 40 μM, coupled enzyme HTS assay; for inhibition at 20 µM: HTS, 20 μM compound, duplicate, read-out: Percent ENTPD5 inhibition
T1 construct: bacterial codon-optimized human ENTPD5 44–428 (B.ENTPD5); His8 (C); made in house; host or cells: E. coli C41(DE3)
T1 sequence (O75356 44-428): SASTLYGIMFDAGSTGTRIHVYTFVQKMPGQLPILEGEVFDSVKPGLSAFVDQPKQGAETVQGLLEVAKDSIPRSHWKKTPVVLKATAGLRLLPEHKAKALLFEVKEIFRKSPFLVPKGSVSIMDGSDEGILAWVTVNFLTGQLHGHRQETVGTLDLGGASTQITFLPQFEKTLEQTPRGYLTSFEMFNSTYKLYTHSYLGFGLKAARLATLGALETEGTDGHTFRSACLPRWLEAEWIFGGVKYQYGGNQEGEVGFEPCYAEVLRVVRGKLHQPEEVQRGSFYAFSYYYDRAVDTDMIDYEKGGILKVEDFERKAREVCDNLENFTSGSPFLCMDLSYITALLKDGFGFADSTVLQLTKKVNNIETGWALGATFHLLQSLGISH
Method: Stocks of purified B.ENTPD5, UMPK, and luciferase were diluted to 0.4 mg/mL, 1.2 mg/mL, 4.5 mg/mL, respectively, in 250 mM NaCl, 25 mM Tris-HCl pH 8.5, 5 mM MgCl2, 0.1 mg/mL BSA, and 5 mM DTT and flash frozen. To prepare enzyme mix solution for HTS, ENTPD5 (1 ng/μL final concentration) and UMPK (3.5 ng/μL) were diluted in HTS buffer (250 mM NaCl, 25 mM Tris-HCl pH 7.7, 5 mM MgCl2, 5 mM DTT, 0.1 mg/mL BSA, and 0.01% Triton X-100). An ENTPD5 null mix was made as above without ENTPD5 to provide maximal signal mimicking 100% inhibition. Substrate mix solution consisted of ATP (625 μM) and UDP (150 μM) in HTS buffer. Developer solution consisted of Luciferase (50 ng/μL) and D-luciferin (1.6 mM) in HTS buffer. All solutions were stored at 4°C, and equilibrated to room temperature prior to screening. All steps of ENTPD5 HTS were performed at room temperature in duplicate 384-well plates. For each run, 40 μL of enzyme solution (or ENTPD5 null mix) was added to each well of a 384 well plate. 0.1 μL of 10 mM compound (in 100% DMSO) from a 25,000 subset of the Chembridge DiverSet library or DMSO alone were added to wells by pin tool (V&P Scientific). Following a 10-minute incubation, the reaction was initiated with 10 μL of substrate mix (final concentrations: 40 ng/50 μL ENTPD5, 140 ng/50 μL UMPK, 125 μM ATP, 30 μM UDP, 20 μM test compound). Assay plates were shaken at 1500 rpm for 30 seconds and then incubated for 1h. Following incubation, 10 μL of developer solution was added to each well (final concentrations: 500 ng/60 μL luciferase, 266 μM D-luciferin). The plate was shaken for 30 seconds and incubated for 30 minutes. Luminescence readings were performed on a Tecan Infinite […] with automatic attenuation settings and 100 ms integration time. Hits and hit analogs were (re)purchased from Chembridge for SAR studies. Compounds were assayed at 5 μM, 10 μM, 20 μM, and 40 μM using the assay described above. To discover ENTPD5 inhibitors, a coupled enzyme assay was developed for high-throughput screening. The ENTPD5 reaction (UDP ➔ UMP + Pi) was coupled with uridine monophosphate kinase's (UMPK) reaction with UMP (UMP + ATP ➔ UDP + ADP) to create a futile catalytic cycle consuming ATP (Fig 3A). After one hour, the residual ATP was measured with firefly luciferase. UMPK concentrations were chosen to ensure ENTPD5, not UMPK, was rate-limiting. The ATP concentration was chosen to maximize signal with no ENTPD5 present, and the reaction time was optimized to remain in the linear range of the assay. Initial UDP concentration was chosen to allow for multiple turnover events on a single molecule in the cycle. Due to the availability of higher yields of the bacterially produced enzyme, B.ENTPD5 was used for HTS and subsequent structure activity relationship studies. 21,000 compounds were screened in duplicate at 20 μM. The average Z' value of the 132-plate screen was 0.73, indicating a robust assay. Five compounds producing >25% reproducible inhibition of ENTPD5 activity were selected for further analysis (0.02% hit rate) (Fig 3B and 3C).

I.ENTPD5 = target: T2, I.ENTPD5 (Homo sapiens, UniProt O75356); assay: Malachite Green (MG) assay for free phosphate; assay type: biochemical
T2 construct: His8 (C); made in house; host or cells: Hi-5 insect cells (baculovirus amplified in SF9)
T2 sequence (O75356 44-428): T1 sequence (O75356 44-428)
Method: Malachite Green (MG) assay for free phosphate was used to directly test ENTPD5 activity. Standard curves for each preparation of malachite green were generated using known amounts of free phosphate. Reactions were carried out at room temperature in 1-mL cuvettes and OD 630 nm measurements were performed on a Nanodrop 2000c. ENTPD5 assays were initiated by adding UDP (100 μM final concentration) to a cuvette containing 800 μL of ENTPD5 (10 ng) in reaction buffer (250 mM NaCl, 5 mM MgCl2, 25 mM Tris-HCl pH 8.5). After 5 minutes, the reaction was quenched with 200 μL of MG buffer (13.1% (v/v) Concentrated sulfuric acid, 2.64 mM malachite green, 1.4% (w/v) ammonium molybdate, and 0.17% (v/v) Tween 20) and mixed by pipet. The OD 630 nm was measured after an additional 5-minute incubation. IC50 values were calculated by GraphPad Prism 6 using sigmoidal interpolation model with 95% confidence intervals. Using I.ENTPD5, the five hits compounds were validated in the malachite green (MG) assay, which directly measures free phosphate, a product of ENTPD5 activity.

LNCaP cells = assay: Growth inhibition assay, LNCaP; assay type: cell-based; settings: Homo sapiens, 48 h, 48h treatment, cell count normalized to DMSO
Method: LNCaP (ATCC CFL-1740), DU-145 (ATCC HTB-81), and PC3 (ATCC CRL-1435) cell lines were cultivated in a humid atmosphere (5% CO2, 37°C) using RPMI 1640 with L-glutamine (10-040-CV Corning) media supplemented with 10% FBS (SH30910.03 Hyclone) and 1x penicillin-streptomycin solution (Invitrogen). RWPE-1 (ATCC CRL-11609) was cultivated in a humid atmosphere (5% CO2, 37°C) using Keratinocyte Serum Free Medium (K-SFM Kit 17005–042 GIBCO) supplemented with bovine pituitary extract, epidermal growth factor (provided with K-SFM Kit), and 1x penicillin-streptomycin solution (Invitrogen). All cell lines were analyzed by STR (Short Tandem Repeat) and confirmed to match to corresponding STR profile data from the Global Bioresource Center ATCC or ExPASy Cellosaurus database. All cell lines were verified to be mycoplasma free.
5,000 cells were plated on day 0 in a 96-well plate. On day 1, before treatment, each well was imaged and direct cell counting was performed using a Celigo S (Nexcelom) imager and automatic cell counting software provided with the instrument. Compounds were added to final concentrations of 0.15 μM- 20 μM. 48 hours after treatment, wells were re-imaged and counted using the pre-treatment counting procedure. Growth was reported as the fold increase over the baseline measurement and normalized to DMSO controls. Experiments were performed in triplicate, in three separate experiments. […]

[2] = tested on: O-glycan levels in LNCaP cells; assay: Western blot for total O-glycosylation, LNCaP; assay type: cell-based; settings: 10 μM, 24h, immunoblot
Method: (§1) LNCaP, DU145, PC3, and RWPE-1 cells were treated with 10 μM compound or DMSO control. 24h post-treatment, cells were washed with ice cold PBS, scraped, pelleted and stored at -80°C until use. Frozen cell pellets were lysed with lysis buffer consisting of 20 mM HEPES pH. 7.4, 150 mM NaCl, 1% Triton X-100, 1 mM EGTA, 1 mM EDTA, 10 mM sodium pyrophosphate, 100 mM NaF, 5 mM iodoacetic acid, 20 nM okadaic acid, 0.2 mM phenylmethylsulfonyl flouride (PMSF), and complete protease inhibitor cocktail tablets (Roche Diagnostics). Samples containing 50 μg of protein were suspended in SDS loading buffer, separated on 4–12% SDS polyacrylamide gels (GenScript #M41215) and electrotransferred to PVDF membranes (Millipore Immobilon-FL #IPFL00010). Precision Plus Protein Standards all blue (Bio-Rad 161–0373) were included as molecular weight markers. Immunoblotting was performed using standard methods, with TBS-T and TBS-T with 5% BSA as the wash and blocking/primary antibody dilution solutions, respectively. Total protein was measured with Ponceau-S staining prior to probing with antibodies. Membranes were incubated overnight at 4°C with primary antibodies diluted 1:1000 unless noted otherwise. […] Western blot quantification was normalized to total protein levels and analyzed in ImageStudio (LI-COR).

[3] = tested on: O-glycan levels in DU145 cells; assay: Western blot for total O-glycosylation, DU145; assay type: cell-based; settings: DU145, 10 μM, 24h, immunoblot
Method: as §1

[4] = substrate UDP, purified I.ENTPD5, Michaelis-Menten

Row | SMILES | IC50 [1] [µM] | inhibition at 20 µM [1] [%] | other results
1 | O=S(=O)(Nc1ccc(O)c(-c2c(O)ccc3ccccc23)c1)c1ccc(Br)cc1 [Compound 2g] | 8.3 ± 1 |  | 
2 | CCc1ccc(S(=O)(=O)Nc2ccc(O)c(-c3c(O)ccc4ccccc34)c2)cc1 [Compound 2e] | 4.3 ± 2.2 |  | 
3 | O=c1ccn([C@@H]2O[C@H](COP(=O)(O)OP(=O)(O)O)[C@@H](O)[C@H]2O)c(=O)[nH]1 [UDP, reference compound] |  |  | Km (I.ENTPD5; [4]): 480 ± 111 µM; kcat (I.ENTPD5; [4]): 783 ± 68 s⁻¹
4 | O=S(=O)(Nc1ccc(O)c(-c2c(O)ccc3ccccc23)c1)c1ccc(Cl)cc1 [Compound 2a] | 6.7 ± 0.7 | 35 | inhibition of I.ENTPD5 (hit validation) (I.ENTPD5; MG assay): dose-dependent inhibition
5 | O=C1NC(c2ccccc2OCc2ccccc2)Nc2ccccc21 (stereo not drawn) [Compound 4] |  | 28 | inhibition of I.ENTPD5 (hit validation) (I.ENTPD5; MG assay): dose-dependent inhibition
6 | CC(C)(C)c1ccc(S(=O)(=O)Nc2ccc(O)c(-c3c(O)ccc4ccccc34)c2)cc1 [Compound 2f] |  |  | IC50 (I.ENTPD5; MG assay, expanded concentration range, 100 μM UDP): 1.54 µM; EC50 (LNCaP cells): > 10 µM; O-glycan level [2]: inability of compound 2f to reduce O-glycan levels; O-glycan level [3]: inability of compound 2f to reduce O-glycan levels
7 | CCC(=O)N1c2ccccc2C(N(C(=O)c2ccccc2)c2ccccc2)CC1C (stereo not drawn) [Compound 3] |  | 47 | 
8 | O=S(=O)(Nc1cc(-c2c(O)ccc3ccccc23)c(O)c2ccccc12)c1ccc(Cl)cc1 [Compound 2i] | > 100 |  | 
9 | Cc1ccc(S(=O)(=O)Nc2cc(-c3c(O)ccc4ccccc34)c(O)c3ccccc23)cc1 [Compound 2h] | > 100 |  | 
10 | Cc1cc(C)c(C)c(S(=O)(=O)Nc2ccc(O)c(-c3c(O)ccc4ccccc34)c2)c1C [Compound 2b] | 3.7 ± 0.4 | 48 | inhibition of I.ENTPD5 (hit validation) (I.ENTPD5; MG assay): dose-dependent inhibition
11 | O=S(=O)(Nc1ccc(O)c(-c2c(O)ccc3ccccc23)c1)c1ccccc1 [Compound 2c] | 6.8 ± 1 |  | 
12 | Cc1ccc(S(=O)(=O)Nc2ccc(O)c(-c3c(O)ccc4ccccc34)c2)cc1 [Compound 2d] | 7.1 ± 1.6 |  | 
